In patent publication US20250099400A1, “TERPENES FOR USE IN MODULATION OF A PHY[…]” (BUZZELET DEVELOPMENT AND TECHNOLOGIES LTD., priority 2022, published 2025):
Values after ≈ are worked out from the molar mass of the structure shown.

How the values were obtained:
[1] = Solubility in the test solutions; details: for solubility relative to the tested concentration range: CB1 dose-response experiment, excluded from analysis
CB1 receptor = target: T1, CB1 receptor (Homo sapiens, UniProt P21554); test: CB1 receptor-activated GIRK currents in Xenopus oocytes (two-electrode voltage clamp); type: cell-based; details: THC concentrations each supplemented with terpene at a weight/weight ratio of 1/10, compared with THC alone
T1 construct: expressed in transfected cells; host or cells: Xenopus laevis oocytes injected with in vitro transcribed cRNA
T1 sequence (P21554 whole entry): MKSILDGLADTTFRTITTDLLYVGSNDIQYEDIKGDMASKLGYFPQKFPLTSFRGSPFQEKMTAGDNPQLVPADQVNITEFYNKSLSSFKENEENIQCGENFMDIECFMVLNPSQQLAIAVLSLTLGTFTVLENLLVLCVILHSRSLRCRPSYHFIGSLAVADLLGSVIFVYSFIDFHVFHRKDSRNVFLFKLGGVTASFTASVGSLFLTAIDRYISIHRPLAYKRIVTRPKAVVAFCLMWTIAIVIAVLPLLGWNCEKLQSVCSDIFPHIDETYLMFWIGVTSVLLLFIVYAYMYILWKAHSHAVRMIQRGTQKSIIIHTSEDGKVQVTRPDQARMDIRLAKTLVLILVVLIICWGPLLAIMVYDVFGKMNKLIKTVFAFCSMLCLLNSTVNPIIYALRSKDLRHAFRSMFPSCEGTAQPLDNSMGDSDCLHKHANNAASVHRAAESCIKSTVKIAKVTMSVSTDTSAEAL
Protocol: cDNA plasmids of the two subunits of the G protein-activated inwardly rectifying K^+ channel (GIRK) (GIRK1 and GIRK2), the CB1 receptor, the CB2 receptor, and the α subunit of the G-protein (Gαi3) were linearized with the appropriate restriction enzymes. The linearized plasmids were transcribed in vitro using a standard procedure.
Oocytes were isolated from female adult X. laevis anesthetized (with 1 g/L MS-222) and incubated in NDE96 solution composed of ND96 (in mM: 96 NaCl, 2 KCl, 1 CaCl2, 1 MgCl2, 5 Hepes, with pH adjusted to 7.5 with NaOH) with the addition of 2.5 mM Na^+ pyruvate, 100 units/ml penicillin, and 100 μg/ml streptomycin (16). The isolated oocytes were injected with the relevant cRNAs: cRNAs of CB1 receptor and CB2 receptor (2 ng) and GIRK1 and GIRK2 (200 pg each) were injected. In addition, cRNA of Gαi3 (1000 pg) was injected to decrease the basal GIRK current (IK) and to improve the relative activation by the agonist.
Currents were measured 3-5 days after cRNA injection and were recorded using the standard two-electrode voltage clamp technique (Axoclamp 2B amplifier, Axon Instruments, Foster City, CA).
Each oocyte was placed in a recording bath containing ND96 solution and was impaled with two electrodes pulled from 1.5-mm Clark capillaries (Warner instruments, Hamden, CT). Both electrodes were filled with a 3M KCI solution and the electrode resistance was between 1 and 5 MΩ. The CB1 receptor-mediated GIRK and the CB2 receptor-mediated GIRK currents were measured in 24 mM K^+ solution (in mM: 72 NaCl, 24 KCl, 1 CaCl2, 1 MgCl2, 5 Hepes, with pH adjusted to 7.5 with KOH). Ba^+2 (1 mM) was used to block the currents in order to verify that the measured currents were indeed mediated by GIRK channels.
The dose response curves were fitted by equation 1:
Y=Bottom+X*(Top-Bottom)/(EC50+X), (1)
The responses evoked in the same oocyte by either THC and\or terpenes measurements, were normalized to this reference value.
The Xenopus oocytes functional expression system was used to test the possibility that the presence of various terpenes affects the activation of the CB1 receptor, as depicted schematically in FIG. 1A. To this end, Xenopus oocytes were injected with cRNAs of proteins involved in the pathway leading to activation of K^+ currents by CB1 receptor via βγ subunits of the G-proteins: The CB1 receptor, the two subunits of the GIRK channel (GIRK1 and GIRK2), and the Gαi3 subunit.
First, the dependence of THC-induced K^+ current (ITHC) on THC concentration (dose-response, DR) was measured. The oocyte was voltage-clamped to −80 mV in a low K^+ (2 mM K^+) solution, ND96. Basal GIRK current (IK) was developed upon replacement of the ND96 by the 24 mM K^+solution. This current represents the basal activation of GIRK channel by endogenous By subunits present in the oocytes. Then, five different concentrations of THC were applied sequentially in ascending order giving rise to ITHC. This current was terminated upon washout of THC. Employing this basic experimental protocol, a full DR curve was constructed.
In order to compare between oocytes, ITHC at any particular THC concentration was normalized to ITHC obtained at a 10 μM THC, defined as the reference response, at this same oocyte.

Structure (SMILES)	solubility relative to the tested concentration range [1]	effect of terpene addition on the potency of THC in CB1 receptor activation (CB1 receptor)	further results
C=CC(C)(O)CCC=C(C)CCC=C(C)C (stereo not drawn) [nerolidol]	below the tested concentration range		
C=C1CC/C=C(\C)CC[C@@H]2[C@@H]1CC2(C)C [β-caryophyllene]	below the tested concentration range		
C=CC(C)=CCC=C(C)C [ocimene]		significantly enhances the potency of THC	
C=C1CCC2CC1C2(C)C (stereo not drawn) [beta pinene, β-pinene]		significantly enhances the potency of THC	
CC(C)=CCC[C@](C)(O)C1CC=C(C)CC1 (stereo partly drawn) [bisabolol]	below the tested concentration range		
C=C1CCC2(C(C)C)CC12 (stereo not drawn) [sabinene]		significantly enhances the potency of THC	
CC(C)=CCC/C(C)=C/CO [geraniol]		significantly enhances the potency of THC	
C=CC(C)(O)CCC=C(C)C (racemic) [linalool]		significantly enhances the potency of THC	
C/C1=C\CC/C(C)=C/CC(C)(C)/C=C/C1 [humulene]	below the tested concentration range		
C=C(C)[C@H]1CC=C(C)CC1 [limonene, limonene-D]		significantly enhances the potency of THC	
CCCCCc1cc(O)c2c(c1)OC(C)(C)[C@@H]1CCC(C)=C[C@@H]21 [THC, tetrahydrocannabinol, reference compound]			solubility ([1]; 24 mM K+ solution, saline or isotonic, kinetic from dmso stock): 10 µM (≈ 3.14 µg/mL)
CC1(C)C2CCC1(C)C(O)C2 (stereo not drawn) [borneol]		significantly enhances the potency of THC	
